From article PMC11258351, “PK/PD investigation of antiviral host matriptase/TMPRSS2 inhibitors in cell models” (Scientific Reports, 2024)
“Also recorded” adds a separate entry of the source. Like-named read-outs stand apart in the source and are kept apart here.

Experiments:
CYP2D6 [1] = biological target: T1, CYP2D6 (Homo sapiens, UniProt P10635); test: Fluorometric CYP2D6 activity assay in human hepatic microsomes; conditions: human liver microsomes, protease inhibitors at 50 µM, 15 min 37 °C
[2] = Depletion of inhibitors in human primary hepatocyte suspension (LC-MS/MS); conditions: human, cryopreserved primary human hepatocytes in suspension; for CLint scaled at 10 µM: intrinsic clearance from primary human hepatocytes scaled to whole liver/body weight
[3] = system: human primary hepatocytes; test: as above; conditions: primary human hepatocytes, 10 µM; for Parent compound retained at the 120-min sampling point: % of 0-min concentration, mean ± S.E.M.; for Sampling interval at which significant depletion was first observed: sampling 0-120 min
CYP2C9 [4] = biological target: T2, CYP2C9 (Homo sapiens, UniProt P11712); test: Fluorometric CYP2C9 activity assay in human hepatic microsomes; conditions: human liver microsomes, protease inhibitors at 50 µM, 15 min 37 °C
CYP2C19 [5] = biological target: T3, CYP2C19 (Homo sapiens, UniProt P33261); test: Fluorometric CYP2C19 activity assay in human hepatic microsomes; conditions: human liver microsomes, protease inhibitors at 50 µM, 15 min 37 °C
CYP1A2 [6] = biological target: T4, CYP1A2 (Homo sapiens, UniProt P05177); test: Fluorometric CYP1A2 activity assay in human hepatic microsomes; conditions: human liver microsomes, protease inhibitors at 50 µM, 15 min 37 °C
T4 sequence (P05177 1-516): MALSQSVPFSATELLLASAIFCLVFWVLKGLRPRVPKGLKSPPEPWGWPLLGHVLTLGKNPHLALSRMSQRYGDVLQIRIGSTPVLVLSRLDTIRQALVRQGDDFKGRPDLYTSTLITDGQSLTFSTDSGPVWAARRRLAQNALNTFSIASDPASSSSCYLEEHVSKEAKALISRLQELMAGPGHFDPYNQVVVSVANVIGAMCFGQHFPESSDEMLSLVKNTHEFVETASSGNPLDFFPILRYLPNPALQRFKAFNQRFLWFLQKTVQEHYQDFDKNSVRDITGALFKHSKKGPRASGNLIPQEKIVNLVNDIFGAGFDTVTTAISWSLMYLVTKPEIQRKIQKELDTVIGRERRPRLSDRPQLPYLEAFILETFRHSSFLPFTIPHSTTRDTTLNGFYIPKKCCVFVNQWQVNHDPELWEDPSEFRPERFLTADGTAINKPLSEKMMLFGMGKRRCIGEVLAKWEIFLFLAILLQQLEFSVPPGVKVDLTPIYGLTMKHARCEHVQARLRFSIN

H1N1 PR8 = system: H1N1 PR8; parameters: method as in PMID 23365447; conditions: Calu-3 cells; cited from earlier work
[7] = system: primary human hepatocytes; conditions: 50 μM; cited from earlier work
CYP3A4 [8] = biological target: T5, CYP3A4 (Homo sapiens, UniProt P08684); test: Fluorometric CYP3A4 activity assay in human hepatic microsomes; conditions: human liver microsomes, 10, 25 and 50 µM
[9] = Prediction of in vivo human PK parameters from hepatocyte clearance; type: in vitro ADME; conditions: for Classification (extraction type) / Extraction ratio EH: predicted; for Predicted Cl, CLH: predicted from hepatocyte Clint, fu = 1
SARS-CoV-2 = system: SARS-CoV-2; parameters: method as in PMID 32703818; conditions: Calu-3 cells, 50 μM, 24 h p.i.; cited from earlier work
H3N2 IAV = system: H3N2 IAV; parameters: method as in PMID 23527573; conditions: Calu-3 cells; cited from earlier work
Calu-3 cells = system: Calu-3 cells; parameters: method as in PMID 32703818; conditions: 50 μM; cited from earlier work
H1N1 IAV = system: H1N1 IAV; parameters: method as in PMID 23527573; conditions: Calu-3 cells; cited from earlier work
[10] = system: H9N2 IAV strain A/quail/Shantou/782/00; type: cell-based, influenza A virus; conditions: MDCK-II cells, MOI 0.01, 50 µM, 24 h
α-1 acidic glycoprotein = system: α-1 acidic glycoprotein; parameters: method as in PMID 37865989; conditions: cited from earlier work
[11] = system: cynomolgus monkey hepatocytes; parameters: method as in PMID 31391268; conditions: cited from earlier work
CYP2C19 [12] = biological target: T3, CYP2C19; parameters: method as in PMID 34915414; conditions: earlier study; cited from earlier work
CYP2C9 [13] = biological target: T2, CYP2C9; parameters: method as in PMID 34915414; conditions: earlier study; cited from earlier work
CYP3A4 [14] = biological target: T5, CYP3A4; parameters: method as in PMID 34915414; conditions: fluorometric assays, earlier study; cited from earlier work
CYP2D6 [15] = biological target: T1, CYP2D6; parameters: method as in PMID 34915414; conditions: earlier study; cited from earlier work
CYP1A2 [16] = biological target: T4, CYP1A2; parameters: method as in PMID 34915414; conditions: earlier study; cited from earlier work
H9N2 = conditions: MDCK-II cells, 20 μM and 50 μM; cited from earlier work
[17] = system: primary human hepatocytes; test: Cytotoxicity in primary human hepatocytes; type: cell-based; conditions: 50 µM, 24 h
Procedure: Supplementary Figure S1. Cytotoxicity of MI-463 and MI-1900 at 50 µM for 24 h in primary human hepatocytes. DMSO was applied as solvent control at 0.5% for 24 h.

A/Hamburg/5/09 (H1N1pdm) = type: cell-based, influenza A virus
matriptase = biological target: matriptase; parameters: method as in PMID 35635944; conditions: cited from earlier work
monkey CYP1A2 = system: monkey CYP1A2; parameters: method as in PMID 35448654; conditions: cited from earlier work
rat CYP1A2 = system: rat CYP1A2; parameters: method as in PMID 35448654; conditions: cited from earlier work
TMPRSS2 = biological target: TMPRSS2; parameters: method as in PMID 35635944; conditions: cited from earlier work
beagle dog CYP1A2 = system: beagle dog CYP1A2; parameters: method as in PMID 35448654; conditions: cited from earlier work

T3 sequence (P33261 whole entry): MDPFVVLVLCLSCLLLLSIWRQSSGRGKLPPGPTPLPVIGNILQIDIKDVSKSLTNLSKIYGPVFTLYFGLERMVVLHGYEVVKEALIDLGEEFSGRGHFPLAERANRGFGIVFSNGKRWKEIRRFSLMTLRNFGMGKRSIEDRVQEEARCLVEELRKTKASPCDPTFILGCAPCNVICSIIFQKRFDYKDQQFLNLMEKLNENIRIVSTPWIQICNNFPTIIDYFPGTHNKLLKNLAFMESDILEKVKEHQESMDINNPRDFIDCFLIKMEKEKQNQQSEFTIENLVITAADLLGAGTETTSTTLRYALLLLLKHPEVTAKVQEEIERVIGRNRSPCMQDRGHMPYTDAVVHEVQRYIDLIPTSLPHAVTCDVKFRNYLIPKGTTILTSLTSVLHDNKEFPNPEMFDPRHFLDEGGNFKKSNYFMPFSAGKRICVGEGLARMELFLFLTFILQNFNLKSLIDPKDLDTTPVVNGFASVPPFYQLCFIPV
T1 sequence (P10635 whole entry): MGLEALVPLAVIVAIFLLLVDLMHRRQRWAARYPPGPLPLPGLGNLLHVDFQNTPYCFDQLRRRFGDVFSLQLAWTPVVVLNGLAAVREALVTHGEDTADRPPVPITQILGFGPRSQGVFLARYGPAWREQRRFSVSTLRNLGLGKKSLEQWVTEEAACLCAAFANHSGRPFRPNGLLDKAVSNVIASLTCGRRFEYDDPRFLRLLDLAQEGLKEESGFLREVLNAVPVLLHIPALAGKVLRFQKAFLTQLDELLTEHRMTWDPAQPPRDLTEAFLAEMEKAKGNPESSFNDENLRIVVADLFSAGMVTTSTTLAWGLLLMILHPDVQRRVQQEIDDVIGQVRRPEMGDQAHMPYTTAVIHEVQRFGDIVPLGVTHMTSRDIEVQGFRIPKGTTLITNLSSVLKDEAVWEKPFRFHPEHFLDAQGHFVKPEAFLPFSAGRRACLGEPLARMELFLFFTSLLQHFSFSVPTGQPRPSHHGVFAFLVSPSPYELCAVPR
T2 sequence (P11712 whole entry): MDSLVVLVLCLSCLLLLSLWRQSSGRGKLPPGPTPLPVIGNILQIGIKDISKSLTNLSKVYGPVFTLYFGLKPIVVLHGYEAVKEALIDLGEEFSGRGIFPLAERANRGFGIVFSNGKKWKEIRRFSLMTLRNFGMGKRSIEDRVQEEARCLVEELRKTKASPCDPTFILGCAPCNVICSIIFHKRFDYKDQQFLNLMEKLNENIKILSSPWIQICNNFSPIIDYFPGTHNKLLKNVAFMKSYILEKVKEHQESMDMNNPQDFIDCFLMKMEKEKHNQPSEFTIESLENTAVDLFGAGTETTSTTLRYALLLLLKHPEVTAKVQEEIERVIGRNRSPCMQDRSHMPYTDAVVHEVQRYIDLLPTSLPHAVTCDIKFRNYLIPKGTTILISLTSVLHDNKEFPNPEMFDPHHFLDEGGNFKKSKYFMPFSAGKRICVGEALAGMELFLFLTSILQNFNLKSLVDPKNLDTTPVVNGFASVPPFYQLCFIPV
T5 sequence (P08684 whole entry): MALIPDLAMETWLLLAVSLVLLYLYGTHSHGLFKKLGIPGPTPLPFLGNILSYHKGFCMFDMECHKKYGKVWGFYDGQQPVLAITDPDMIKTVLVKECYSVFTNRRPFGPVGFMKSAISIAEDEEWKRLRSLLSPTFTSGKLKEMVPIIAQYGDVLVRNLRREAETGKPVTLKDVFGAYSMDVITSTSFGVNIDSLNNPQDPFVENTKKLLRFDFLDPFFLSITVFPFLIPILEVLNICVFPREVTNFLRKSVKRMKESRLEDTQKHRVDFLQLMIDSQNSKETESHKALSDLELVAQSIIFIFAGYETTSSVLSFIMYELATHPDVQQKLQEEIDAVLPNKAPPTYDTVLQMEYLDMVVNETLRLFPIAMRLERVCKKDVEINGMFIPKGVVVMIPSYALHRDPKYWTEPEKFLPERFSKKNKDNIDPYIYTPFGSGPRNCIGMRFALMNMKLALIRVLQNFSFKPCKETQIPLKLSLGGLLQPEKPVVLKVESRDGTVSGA

Row | SMILES | Inhibition of CYP2D6 activity (CYP2D6 [1]) | half-life at 10 µM [2] [h] | CLint scaled at 10 µM [2] [mL/min/kg] | Parent compound retained at the 120-min sampling point [3] [%] | Sampling interval at which significant depletion was first observed [3] [min] | Inhibition of CYP2C9 activity (CYP2C9 [4]) | Inhibition of CYP2C19 activity (CYP2C19 [5]) | Inhibition of CYP1A2 activity (CYP1A2 [6]) | Effect on CYP3A4 enzyme activity (CYP3A4 [8]) | Classification (extraction type) [9] | Extraction ratio EH [9] | Predicted Cl, CLH [9] | Reduction of SARS-CoV-2 viral titers compared to control samples (SARS-CoV-2) [fold] | Influence on Calu-3 cell viability (Calu-3 cells) | H9N2 viral spread / formation of viral foci [10] | Treatment time after which significant conversion was seen [11] [min] | also measured
1 | N=C(N)c1cccc(C[C@H](NS(=O)(=O)c2cccc(NC(=O)CCN)c2)C(=O)N2CCC(CCN)CC2)c1 [MI-21] | No significant CYP inhibitory potential | 0.52 | 147 | 16.6 ± 1.6 | 30 | No significant CYP inhibitory potential | No significant CYP inhibitory potential | No significant CYP inhibitory potential | did not cause significant reduction; also recorded: did not significantly suppress | Intermediate | 0.53 | 10.92 | – | – | – | – | Inhibition of replication of H1N1 PR8 (H1N1 PR8): promising inhibition; Cell toxicity [7]: no cell toxicity
2 | N=C(N)c1cccc(C[C@H](NS(=O)(=O)c2cccc(-c3ccc(Cl)cc3Cl)c2)C(=O)N2CCC(CCN)CC2)c1.O=C(O)C(F)(F)F.O=C(O)C(F)(F)F [MI-432, reference compound] | – | – | – | – | – | – | – | – | – | – | – | – | 75 | without influencing Calu-3 cell viabilitiy significantly | – | – | Inhibition of proteolytic activation and replication of H3N2 IAV (H3N2 IAV): notable efficacy; Inhibition of proteolytic activation and replication of H1N1 IAV (H1N1 IAV): notable efficacy
3 | COc1ccc(-c2cccc(S(=O)(=O)N[C@@H](Cc3cccc(C(=N)N)c3)C(=O)N3CCC(N)CC3)c2)c(OC)c1 [MI-472] | No significant CYP inhibitory potential | 3.84 | 19.8 | 65.1 ± 5.5 | 30 | No significant CYP inhibitory potential | No significant CYP inhibitory potential | No significant CYP inhibitory potential | significant inhibitory effect | Intermediate | 0.36 | 7.40 | – | – | only slightly reduced formation of viral foci | 60 to 120 | Interaction with α-1 acidic glycoprotein (α-1 acidic glycoprotein): complex formation
4 | COc1ccc(-c2cccc(S(=O)(=O)N[C@@H](Cc3cccc(C(=N)N)c3)C(=O)N3CCN(C(=O)NC4CCCCC4)CC3)c2)c(OC)c1 [MI-1900] | – | 1.8 | 42.3 | 48.6 ± 1.5 | 30 | – | – | – | – | Intermediate | 0.45 | 9.23 | 35 to 280 | without influencing Calu-3 cell viabilitiy significantly | strong suppression of viral spread | 60 to 120 | Inhibition of CYP2C19 activity (CYP2C19 [12]): No significant CYP inhibitory potential; Inhibition of CYP2C9 activity (CYP2C9 [13]): No significant CYP inhibitory potential; Inhibition of CYP3A4 activity (CYP3A4 [14]): substantial inhibitory effects; Inhibition of CYP2D6 activity (CYP2D6 [15]): No significant CYP inhibitory potential; Inhibition of CYP1A2 activity (CYP1A2 [16]): No significant CYP inhibitory potential; Effect on H9N2 virus propagation (H9N2): strongly inhibiting its replication; Cytotoxicity in primary human hepatocytes [17]: No significant differences in cell viabilities; also recorded: lack of cytotoxicity; Reduction of H1N1 titers (A/Hamburg/5/09 (H1N1pdm)): 1.62 logs; Ki (matriptase): 0.038 µM; Inhibition of monkey CYP1A2 (monkey CYP1A2): significant inhibition; Inhibition of rat CYP1A2 (rat CYP1A2): significant inhibition; Ki (TMPRSS2): 0.079 µM; Inhibition of beagle dog CYP1A2 (beagle dog CYP1A2): no significant inhibition
